Common to all, as to assay type: cell-based, human
The subject of one test is A549. Put plainly: SRB colorimetric cytotoxicity assay, A549. Particulars: Homo sapiens, lung carcinoma (NSCLC). The source says: (§1) The aim of this assay is to evaluate the in vitro cytostatic (ability to delay or arrest tumor cell growth) or cytotoxic (ability to kill tumor cells) activity of the samples being tested.
(§2) A colorimetric assay, using sulforhodamine B (SRB) reaction has been adapted to provide a quantitative measurement of cell growth and viability (following the technique described by V. Vichai and K. Kirtikara (2006) Nature Protoc. 1, 1112-1116.)
(§3) This form of assay employs 96-well cell culture microplates. All the cell lines used in this study were obtained from the American Type Culture Collection (ATCC), unless otherwise indicated, and derive from different types of human cancer.
(§4) Cells were maintained in Dulbecco's Modified Eagle Medium (DMEM) (for A549, HT-29 and MDA-MB-231) or RPMI (for PSN-1) supplemented with 10% Fetal Bovine Serum (FBS), 2 mM L-glutamine, 100 U/mL penicillin and 100 U/mL streptomycin at 37° C., 5% CO2 and 98% humidity. For the experiments, cells were harvested from subconfluent cultures using trypsinization and resuspended in fresh medium before counting and plating.
(§5) Cells were seeded in 96 well microtiter plates, at 5×10^3 cells per well in aliquots of 150 μL, and allowed to attach to the plate surface for 18 hours (overnight) in drug free medium. After that, one control (untreated) plate of each cell line was fixed (as described below) and used for time zero reference value. […] After 72 hours treatment, the antitumor effect was measured by using the SRB methodology: Briefly, cells were washed twice with PBS, fixed for 15 min in 1% glutaraldehyde solution at room temperature, rinsed twice in PBS, and stained in 0.4% SRB solution for 30 min at room temperature. Cells were then rinsed several times with 1% acetic acid solution and air-dried at room temperature. SRB was then extracted in 10 mM trizma base solution and the absorbance measured in an automated spectrophotometric plate reader at 490 nm. Effects on cell growth and survival were estimated by applying the NCI algorithm (Boyd M R and Pauli K D. Drug Dev Res. 1995, 34, 91-104).
(§6) Using the mean±SD of triplicates, a dose-response curve was automatically generated using nonlinear regression analysis to a 4-parameter logistic curve. Three reference parameters were calculated (NCI algorithm) by automatic interpolation: GI50=compound concentration that produces 50% cell growth inhibition, as compared to control cultures; TGI=total cell growth inhibition (cytostatic effect), as compared to control cultures, and LC50=compound concentration that produces 50% net cell killing (cytotoxic effect).

For a further test, the system named is HT29. As to the kind of experiment: SRB colorimetric cytotoxicity assay, HT29. Particulars: Homo sapiens, colorectal adenocarcinoma.
Excerpt: as §1, §2, §3, §4, §5, §6

The next test concerns MDA-MB-231. Put plainly: SRB colorimetric cytotoxicity assay, MDA-MB-231. To be noted: Homo sapiens, breast adenocarcinoma.
Excerpt: as §1, §2, §3, §4, §5, §6

The subject of a further test is PSN-1. Put plainly: SRB colorimetric cytotoxicity assay, PSN-1. Particulars: Homo sapiens, pancreatic adenocarcinoma.
Excerpt: as §1, §2, §3, §4, §5, §6

The mark [1] stands for this setting: HT-29, 72 h, 72 hours treatment.
[2] abbreviates: MDA-MB-231, 72 h, 72 hours treatment.

`C=CCOc1cc([C@@H](CCC)NC(=O)[C@]2(C)CSC(/C(C)=N/OCCCNC(=O)OC(C)(C)C)=N2)oc(=O)c1` [Compound 152]: the GI50 in the test with A549 (A549, 72 h, 72 hours treatment) is 19.5 nM; in the test with HT29 (setting [1]), 19.5 nM; in the test on MDA-MB-231 (setting [2]) it was 26.6 nM; in the test on PSN-1 (PSN1, 72 h, 72 hours treatment) it was 21.3 nM.

Take `C=CCOc1cc([C@@H](CCC)NC(=O)[C@]2(C)CSC(/C(C)=N/O[C@H]3O[C@@H]4COC(C)(C)O[C@H]4[C@@H]4OC(C)(C)O[C@H]34)=N2)oc(=O)c1` [Compound 110]: the 50% growth inhibitory concentration (GI50) with A549 (A549, 72 h, 72 hours treatment) is 43.1 nM; in the test with HT29 (setting [1]), 36.9 nM; with MDA-MB-231 (setting [2]), 78.5 nM; in the test on PSN-1 (PSN1, 72 h, 72 hours treatment), 56.9 nM.

Regarding `CCC[C@@H](NC(=O)[C@]1(C)CSC(C(C)=O)=N1)c1cc(OC)cc(=O)o1` [Compound 42], the GI50 with A549 (A549, 72 h, 72 hours treatment) was determined as 24600 nM; in the test on HT29 (setting [1]), 8730 nM; with MDA-MB-231 (setting [2]), 4640 nM; in the test on PSN-1 (PSN1, 72 h, 72 hours treatment) it was 5190 nM.

With `CCC[C@H](NC(=O)[C@]1(C)CSC(/C(C)=N/O)=N1)c1cc(OC)cc(=O)o1` [Compound epi-1], the 50% growth inhibitory concentration (GI50) was 2880 nM in the test with A549 (A549, 72 h, 72 hours treatment); 3410 nM in the test with HT29 (setting [1]); 3930 nM with MDA-MB-231 (setting [2]); 5770 nM with PSN-1 (PSN1, 72 h, 72 hours treatment).

In the case of `C=CCOc1cc([C@@H](CCC)NC(=O)[C@]2(C)CSC(/C(C)=N/O[C@H]3O[C@H](CO)[C@@H](O)[C@@H]4OC(C)(C)O[C@H]34)=N2)oc(=O)c1` [Compound 111], the 50% growth inhibitory concentration (GI50) came to 26.2 nM in the test on A549 (A549, 72 h, 72 hours treatment); 24.6 nM with HT29 (setting [1]); 29.5 nM with MDA-MB-231 (setting [2]); 37.7 nM in the test with PSN-1 (PSN1, 72 h, 72 hours treatment).

As to `CCC[C@@H](NC(=O)[C@]1(C)CSC(/C(C)=N/O)=N1)c1cc(N(CC)CC)cc(=O)o1` [Compound 77], the GI50 in the test on A549 (A549, 72 h, 72 hours treatment) came to 2150 nM; in the test with HT29 (setting [1]), 1180 nM; in the test with MDA-MB-231 (setting [2]), 1960 nM; in the test on PSN-1 (PSN1, 72 h, 72 hours treatment), 2370 nM.

For `CCC[C@@H](NC(=O)[C@]1(C)CSC(/C(C)=N/OCCCN)=N1)c1cc(OC)cc(=O)o1` [Compound 98], the GI50 turned out to be 22.1 nM with A549 (A549, 72 h, 72 hours treatment); 25.1 nM with HT29 (setting [1]); 34.2 nM in the test on MDA-MB-231 (setting [2]); 27.4 nM with PSN-1 (PSN1, 72 h, 72 hours treatment).

Turning to `CCC[C@@H](NC(=O)[C@]1(C)CSC(/C(C)=N/OCCCS)=N1)c1cc(OC)cc(=O)o1` [Compound 151], the GI50 turned out to be 856 nM with A549 (A549, 72 h, 72 hours treatment); 505 nM with HT29 (setting [1]); 1340 nM in the test with MDA-MB-231 (setting [2]); 1210 nM in the test with PSN-1 (PSN1, 72 h, 72 hours treatment).

For `CCCCCCCCCCCCCCCCCOc1cc([C@@H](CCC)NC(=O)[C@]2(C)CSC(/C(C)=N\O)=N2)oc(=O)c1` [Compound 73a], the 50% growth inhibitory concentration (GI50) with A549 (A549, 72 h, 72 hours treatment) is 64.4 nM; in the test with HT29 (setting [1]), 62.7 nM; in the test on MDA-MB-231 (setting [2]) it was 66 nM; in the test with PSN-1 (PSN1, 72 h, 72 hours treatment), 59.4 nM.

Take `C=CCOc1cc([C@@H](CCC)NC(=O)[C@]2(C)CSC(/C(C)=N/O[Si](c3ccccc3)(c3ccccc3)C(C)(C)C)=N2)oc(=O)c1` [Compound 113]: the GI50 in the test with A549 (A549, 72 hours treatment) came out at 15.2 nM; in the test on HT29 (HT-29, 72 hours treatment), 5.57 nM; in the test on MDA-MB-231 (MDA-MB-231, 72 hours treatment), 8.36 nM; with PSN-1 (PSN1, 72 hours treatment), 14.7 nM.

For `C=C(OCC)C1=N[C@](C)(C(=O)N[C@H](CCC)c2cc(OCC3CC3)cc(=O)o2)CS1` [Compound 185], the GI50 in the test with A549 (A549, 72 h, 72 hours treatment) is 161 nM; in the test with HT29 (setting [1]), 207 nM; with MDA-MB-231 (setting [2]), 228 nM; with PSN-1 (PSN1, 72 h, 72 hours treatment), 140 nM.

Take `C#CCOc1cc([C@@H](CCC)NC(=O)[C@]2(C)CSC(C(C)=NO)=N2)oc(=O)c1CC#C` [Compound 141]: the GI50 came to 225 nM in the test on A549 (A549, 72 h, 72 hours treatment); 178 nM with HT29 (setting [1]); 248 nM in the test on MDA-MB-231 (setting [2]); 338 nM with PSN-1 (PSN1, 72 h, 72 hours treatment).

As for `C#CCOc1cc([C@@H](CCC)NC(=O)[C@]2(C)CSC(/C(C)=N/OCCCN)=N2)oc(=O)c1` (stereo in doubt) [Compound 156], the concentration for 50% growth inhibition (GI50) is 1.28 nM in the test with A549 (A549, 72 h, 72 hours treatment); 2.43 nM in the test with HT29 (setting [1]); 2.6 nM in the test with MDA-MB-231 (setting [2]); 2.43 nM in the test with PSN-1 (PSN1, 72 h, 72 hours treatment).

For the compound `CCC[C@@H](NC(=O)[C@]1(C)CSC(/C(C)=N/O)=N1)c1cc(OCC2CC2)cc(=O)o1` [Compound 76], the GI50 in the test on A549 (A549, 72 h, 72 hours treatment) worked out at 3.56 nM; with HT29 (setting [1]), 3.8 nM; in the test with MDA-MB-231 (setting [2]), 3.8 nM; in the test with PSN-1 (PSN1, 72 h, 72 hours treatment), 3.08 nM.

The values above are taken from US12215100B2, “Anticancer compounds” (Pharma Mar, S.A., priority 2018, dated 2025).
